Laboratory results reported in article PMC2951365, “Structural Transformation of the Tandem Ubiquitin-Interacting Motifs in Ataxin-3 and Their Cooperative Interactions with Ubiquitin Chains” (PLoS ONE, 2010).
pKd: −log10 of the molar value. Read-outs that look alike come from different tables or passages of the source.

Legend:
Ub [1] = biological target: T1, Ub (Homo sapiens, UniProt P0CG48); details: cited from earlier work
T1 construct: gene UBC; 15N-labeled Ub; cDNA encoding Ub cloned into pET-3a, expressed in E. coli
From the text: (§1) There are about 20∼50 residues inserted in between two UIMs of S5a and Vps27, but the linker region between the two UIMs of AT3 is very short. These adjoining UIM motifs in AT3 raise a possible cooperativity for binding with Ub. Our structure determination and titration experiments reveal that the individual UIMs of AT3 can bind Ub respectively but with lower affinities. […] It seems that the cooperative interaction of AT3-UIM12 with diUb or polyUb is more remarkable than that with monoUb (Supplemental Fig. S7). […] Therefore, the altered affinities of AT3-UIM12 for monoUb or diUb may result from structural transformation of the linker region. The backbone dynamics provides further evidence for the conformational change in the linker region, which possibly allows cooperative interaction with Ub.

Ub [2] = details: cited from earlier work
From the text: as §1

Ub [3] = biological target: T1, Ub; details: read-out: K D,app
Method: ^15N-Ub at a molar concentration of ∼0.2 mM was titrated with increasing amount of UIM peptides or its mutants. A series of ^1H-^15N HSQC spectra of Ub were obtained and the chemical shift changes were measured for each molar ratio. […] The combined average chemical shift changes (Δδave) were calculated as Δδave = [(0.2*ΔδN)^ 2 + (ΔδHN)^ 2]^1/2, where ΔδHN and ΔδN are the chemical shift changes in the ^1H and ^15N dimensions, respectively. […] The dissociation constant (K D) for the UIM-Ub binding was obtained by fitting the titration curves [61].
^15N- or ^15N/^13C-labeled samples (∼1 mM) were dissolved in a PBS buffer (20 mM phosphate, 100 mM NaCl, pH 6.5) containing 8% or 100% D2O and 0.02% (w/v) NaN3. […] All the NMR experiments were performed at 25°C on a Varian UNITY INOVA 600 MHz spectrometer equipped with three RF channels and a triple-resonance pulsed-field gradient probe.

In the case of “S5a UIM1 (210–230 in alignment); construct not told”, the pKd (Ub [1]) is listed as about 3.46.
In the case of “S5a UIM2 (281–301 in alignment); construct not told”, the pKd (Ub [1]) is listed as 4.14.
For “Vps27p UIM1 (257–277 in alignment); construct not told”, the pKd (Ub [2]) is given as 3.56.
For “Vps27p UIM2 (300–320 in alignment); construct not told”, the pKd (Ub [2]) is given as 3.93.
Substance “ataxin-3 residues 335–354; GB1 fusion [AT3-UIM3]” has a pKd (Ub [3]) of under 2.52.
